In PMC10180520, “Phytochemical Analysis and Profiling of Antioxidants and Anticancer Compounds from Tephrosia purpurea (L.) subsp. apollinea Family Fabaceae” (Molecules, 2023):
≈ marks a conversion by molar mass, not a printed value.

Columns and labels:
[1] = DPPH radical scavenging assay; format: biochemical
Method: Each methanolic extract concentration (1 mL) was added to 3 mL of 0.1 mM DPPH solubilized in methanol, followed by shaking and placing it into a dark chamber for 30 min. When DPPH reacts with an H-donating antioxidant, it is scavenged, thereby resulting in a decrease in absorbance. The optical density of each concentration was measured at 517 nm in a UV-Vis spectrophotometer. Ascorbic acid was used as an antioxidant standard. All the values were measured in triplicate.

MG63 = experiment: Light microscopy of treated cells, MG63; format: cell-based; details: MG63, 250 µg/mL (Figure 8)
Source text: (§1) Morphologies of cells treated with the various methanol T. purpurea subsp. apollinea extract concentrations were investigated under light microscopy at 10× objective lens, total magnification = 100×.

breast cancer (MCF7) = experiment: MTT assay, breast cancer (MCF7); format: cell-based
Method: (§2) Breast cancer cell lines (MCF7), osteosarcoma (MG63), breast ductal carcinoma (T47D), leukemia (U937), as well as HeLa, PC3, and healthy pulmonary fibroblast were supplied by the tissue culture laboratory at Vacsera, Egypt. The culturing procedure was maintained sterile, utilizing a laminar airflow cabinet. The cells were cultured in Roswell Park Memorial Institute medium (RPMI 1640). The medium was provided with antibiotics (streptomycin and penicillin) as well as antifungal agents (amphotericin B) and L-glutamine. It was also supplemented with 10% heat-inactivated fetal bovine serum.
(§3) Cell viability was measured using a 3-(4,5-dimethylthiazol-2-yl)-2,5-diphenyl-2H-tetrazolium bromide (MTT) assay. The principle of the MTT assay is that through mitochondrial reduction, purple-colored crystals are produced from the yellowish MTT [80]. […]
(§4) Using a growth medium, serial dilutions of the dimethyl sulfoxide (DMSO)-solubilized extract were produced at concentrations of 31.25, 62.5, 125, 250, 500, and 1000 µg/mL [80]. […] A microplate reader was used to measure the optical density of the formazan solution at 560 nm, with values corrected using a background reference λ of 620 nm. […]
(§5) The IC50 profiles of methanol extract of T. purpurea subsp. apollinea and a positive control for cancer and healthy cell lines were determined with GraphPad Prism version 7 (GraphPad Software Inc., San Diego, CA, USA). […]

[2] = system: breast ductal carcinoma (T47D); experiment: MTT assay, breast ductal carcinoma (T47D); format: cell-based
Method: as §2, §3, §4, §5

cervical cancer (HeLa) = experiment: MTT assay, cervical cancer (HeLa); format: cell-based
Method: as §2, §3, §4, §5

MCF7 = experiment: Light microscopy of treated cells, MCF7; format: cell-based; details: MCF7, 250 µg/mL (Figure 8)
Source text: as §1

T47D = experiment: Light microscopy of treated cells, T47D; format: cell-based; details: 250 µg/mL (Figure 8)
Source text: as §1

HeLa = experiment: Light microscopy of treated cells, HeLa; format: cell-based; details: 250 µg/mL (Figure 8)
Source text: as §1

PC3 = experiment: Light microscopy of treated cells, PC3; format: cell-based; details: PC3, 250 µg/mL (Figure 8)
Source text: as §1

osteosarcoma (MG63) = experiment: MTT assay, osteosarcoma (MG63); format: cell-based
Method: as §2, §3, §4, §5

prostate cancer (PC3) = experiment: MTT assay, prostate cancer (PC3); format: cell-based
Method: as §2, §3, §4, §5

[3] = system: normal human fetal lung fibroblast (WI38); experiment: MTT assay, normal human fetal lung fibroblast (WI38); format: cell-based; details: WI-38, WI38 normal cells, 24 h
Method: as §2, §3, §4, §5

leukemia (U937) = experiment: MTT assay, leukemia (U937); format: cell-based
Method: as §2, §3, §4, §5

[4] = ABTS radical scavenging assay; format: biochemical
Method: Distilled water was used to bring up a 50-mL volumetric flask to mark after dissolving 192 mg of 2,2′-azino-bis(3-ethylbenzothiazoline-6-sulfonic acid) (ABTS) in a small volume of water and transferring it to the flask, followed by addition of 1 mL of this solution to 17 μL 0.14 M K2S2O8, and incubation in darkness for 24 h. To prepare the final ABTS dilution for the T. purpurea subsp. apollinea extract, 1 mL of reaction mixture was added to 49 mL of methanol. Then, 0.190 mL of newly made ABTS solution was mixed with 0.010 mL of plant extract in a 96-well plate and kept in the dark for 30 min. Thereafter, a decrease in ABTS OD was read at 734 nm in a FluoStar Omega microplate reader. Trolox was used as an antioxidant standard. All the values were measured in triplicate.

## O=C1O[C@H]([C@@H](O)CO)C(O)=C1O [Ascorbic Acid, Ascorbic acid]
[1]; Conc. 1.95 µg/mL
  DPPH Scavenging%: 41.8 ± 0.5%
[1]; Conc. 3.9 µg/mL
  DPPH Scavenging%: 45.9 ± 0.1%
[1]; Conc. 7.8125 µg/mL
  DPPH Scavenging%: 56.2 ± 0.2%
[1]; Conc. 15.625 µg/mL
  DPPH Scavenging%: 64.2 ± 0.3%
[1]; Conc. 31.25 µg/mL
  DPPH Scavenging%: 71.2 ± 0.2%
[1]; Conc. 62.5 µg/mL
  DPPH Scavenging%: 77.9 ± 0.3%
[1]; Conc. 125 µg/mL
  DPPH Scavenging%: 86.4 ± 0.3%
[1]; Conc. 250 µg/mL
  DPPH Scavenging%: 92.7 ± 0.2%
[1]; Conc. 500 µg/mL
  DPPH Scavenging%: 94.5 ± 0.2%
[1]; Conc. 1000 µg/mL
  DPPH Scavenging%: 97.1 ± 0.1%
[1]; mean ± standard deviation
  IC50 of DPPH radical scavenging: ^a IC50 = 4.8 ± 0.1 μg/mL

## COc1cccc2c1C(=O)c1c(O)c3c(c(O)c1C2=O)C[C@@](O)(C(=O)CO)C[C@@H]3O[C@H]1C[C@H](N)[C@H](O)[C@H](C)O1 [Doxorubicin]
MG63
  cell morphology: rounded and shrunk cells
Breast cancer (MCF7); IC50 for WI38 / IC50 for MCF7
  SI (selectivity index): 0.5
Breast cancer (MCF7); MCF7, MTT, 24 h
  IC50: 37.4 ± 0.1 µg/mL (≈ 68.8 µM)
[2]; Homo sapiens, T47D, MTT, 24 h
  IC50: 7 ± 0.1 µg/mL (≈ 12.9 µM)
[2]; IC50 for WI38 / IC50 for T47D
  SI (selectivity index): 2.8
Cervical cancer (HeLa); Homo sapiens, HeLa, MTT, 24 h
  IC50: 41.9 ± 0.1 µg/mL (≈ 77.1 µM)
Cervical cancer (HeLa); IC50 for WI38 / IC50 for HeLa
  SI (selectivity index): 0.4
MCF7
  cell morphology: rounded and shrunk cells
T47D
  cell morphology: rounded and shrunk cells
HeLa
  cell morphology: rounded and shrunk cells
PC3
  cell morphology: rounded and shrunk cells
Osteosarcoma (MG63); Homo sapiens, MG-63, MG63, MTT, 24 h
  IC50: 19 ± 0.3 µg/mL (≈ 35 µM)
Osteosarcoma (MG63); IC50 for WI38 / IC50 for MG63
  SI (selectivity index): 1.0
Prostate cancer (PC3); IC50 for WI38 / IC50 for PC3
  SI (selectivity index): 0.4
Prostate cancer (PC3); PC3, MTT, 24 h
  IC50: 46.3 ± 0.2 µg/mL (≈ 85.2 µM)
[3]
  IC50: 20.1 ± 0.1 µg/mL (≈ 37 µM)
Leukemia (U937); Homo sapiens, U-937, U937, MTT, 24 h
  IC50: 41.7 ± 0.9 µg/mL (≈ 76.7 µM)
Leukemia (U937); IC50 for WI38 / IC50 for U937
  SI (selectivity index): 0.4

## Cc1c(C)c2c(c(C)c1O)CCC(C)(C(=O)O)O2 (centres unmarked) [Trolox]
[4]; Conc. 0.6 µg/mL
  ABTS Scavenging%: 9.9 ± 0.3%
[4]; Conc. 1.3 µg/mL
  ABTS Scavenging%: 18.6 ± 0.4%
[4]; Conc. 3.8 µg/mL
  ABTS Scavenging%: 49.6 ± 2.6%
[4]; Conc. 6.2 µg/mL
  ABTS Scavenging%: 83.6 ± 1.9%
[4]; Conc. 8.8 µg/mL
  ABTS Scavenging%: 92.6 ± 0.2%
[4]; mean ± standard deviation
  IC50 of ABTS radical scavenging: ^a IC50 = 2.9 ± 0.1 μg/mL
